Source: ChEMBL document CHEMBL1201862, “PubChem BioAssay data set” (2004)
The source made the active and inactive calls. No stated cut-off is given here; in the data, actives have a measured IC50 and inactives only a lower limit.

Legend:
Assay type in all cases: functional
[1] = target: T1, Sentrin-specific protease 6 (Homo sapiens, UniProt Q9GZR1); assay: SAR Analysis of small molecule inhibitors of Sentrin-specific protease 6 (SENP6) using a Luminescent assay. [Related pubchem assays (depositor defined):AID2582, AID2599]
T1 sequence (Q9GZR1 whole entry): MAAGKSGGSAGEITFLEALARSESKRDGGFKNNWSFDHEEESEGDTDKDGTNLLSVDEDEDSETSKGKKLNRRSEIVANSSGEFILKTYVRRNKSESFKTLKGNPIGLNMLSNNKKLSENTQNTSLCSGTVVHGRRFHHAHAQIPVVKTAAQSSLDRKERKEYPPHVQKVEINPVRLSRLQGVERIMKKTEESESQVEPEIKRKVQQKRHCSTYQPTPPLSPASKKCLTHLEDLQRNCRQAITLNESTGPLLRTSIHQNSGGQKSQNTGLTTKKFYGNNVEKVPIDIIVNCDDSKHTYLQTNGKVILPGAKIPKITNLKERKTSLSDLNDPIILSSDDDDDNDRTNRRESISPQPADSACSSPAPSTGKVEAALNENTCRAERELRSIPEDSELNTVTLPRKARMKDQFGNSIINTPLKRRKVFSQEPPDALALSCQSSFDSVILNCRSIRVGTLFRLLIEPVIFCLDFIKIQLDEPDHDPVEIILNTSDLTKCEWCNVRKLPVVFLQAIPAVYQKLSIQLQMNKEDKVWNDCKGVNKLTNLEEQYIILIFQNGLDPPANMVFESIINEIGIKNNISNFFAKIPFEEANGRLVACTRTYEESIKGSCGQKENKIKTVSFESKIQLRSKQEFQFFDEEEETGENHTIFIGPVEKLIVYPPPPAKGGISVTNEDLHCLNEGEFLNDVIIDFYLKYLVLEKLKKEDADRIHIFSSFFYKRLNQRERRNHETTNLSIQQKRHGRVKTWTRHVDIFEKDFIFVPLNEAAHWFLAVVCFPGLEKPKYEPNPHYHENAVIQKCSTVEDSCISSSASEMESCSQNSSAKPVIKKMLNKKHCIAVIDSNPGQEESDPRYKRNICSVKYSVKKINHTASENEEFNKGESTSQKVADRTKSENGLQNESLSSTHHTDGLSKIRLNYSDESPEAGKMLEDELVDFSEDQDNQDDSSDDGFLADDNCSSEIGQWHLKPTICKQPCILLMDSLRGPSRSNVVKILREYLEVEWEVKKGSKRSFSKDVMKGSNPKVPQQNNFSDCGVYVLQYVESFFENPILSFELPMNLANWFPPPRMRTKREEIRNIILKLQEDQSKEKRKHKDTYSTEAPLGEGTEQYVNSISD

[2] = target: T2, Sentrin-specific protease 7 (Homo sapiens, UniProt Q9BQF6); assay: SENP7 protease inhibitors, SAR follow-up, biochemical, luminescence (AID 504497)
T2 sequence (Q9BQF6 whole entry): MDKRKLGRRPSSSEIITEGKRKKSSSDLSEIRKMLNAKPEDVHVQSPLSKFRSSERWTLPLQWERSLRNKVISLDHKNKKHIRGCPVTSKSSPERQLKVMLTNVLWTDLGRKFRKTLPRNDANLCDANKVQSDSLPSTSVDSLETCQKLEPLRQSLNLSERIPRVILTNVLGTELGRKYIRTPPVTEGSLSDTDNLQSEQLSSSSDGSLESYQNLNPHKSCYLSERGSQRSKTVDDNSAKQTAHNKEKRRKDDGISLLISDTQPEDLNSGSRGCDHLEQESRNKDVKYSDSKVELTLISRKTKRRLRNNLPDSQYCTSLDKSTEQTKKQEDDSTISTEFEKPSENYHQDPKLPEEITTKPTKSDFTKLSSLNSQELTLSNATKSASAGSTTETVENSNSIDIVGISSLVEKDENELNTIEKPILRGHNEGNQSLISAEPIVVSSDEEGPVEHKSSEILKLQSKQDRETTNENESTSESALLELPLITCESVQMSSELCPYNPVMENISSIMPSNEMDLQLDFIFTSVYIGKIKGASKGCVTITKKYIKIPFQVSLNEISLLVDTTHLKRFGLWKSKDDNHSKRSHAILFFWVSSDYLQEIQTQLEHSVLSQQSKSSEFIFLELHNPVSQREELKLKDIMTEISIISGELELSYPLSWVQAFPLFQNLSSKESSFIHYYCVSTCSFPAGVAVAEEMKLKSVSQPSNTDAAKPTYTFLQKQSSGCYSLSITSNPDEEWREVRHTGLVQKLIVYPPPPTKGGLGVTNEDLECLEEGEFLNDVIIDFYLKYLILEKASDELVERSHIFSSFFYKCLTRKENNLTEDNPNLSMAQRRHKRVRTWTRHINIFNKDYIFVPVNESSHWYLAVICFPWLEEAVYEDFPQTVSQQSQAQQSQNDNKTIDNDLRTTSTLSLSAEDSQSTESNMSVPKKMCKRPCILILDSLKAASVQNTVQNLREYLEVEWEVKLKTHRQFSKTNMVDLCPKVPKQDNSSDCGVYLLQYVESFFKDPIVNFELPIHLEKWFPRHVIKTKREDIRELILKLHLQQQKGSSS

[3] = target: T3, Sentrin-specific protease 8 (Homo sapiens, UniProt Q96LD8); assay: SENP8 protease inhibitors, SAR follow-up, biochemical, luminescence (AID 504501)
T3 sequence (Q96LD8 whole entry): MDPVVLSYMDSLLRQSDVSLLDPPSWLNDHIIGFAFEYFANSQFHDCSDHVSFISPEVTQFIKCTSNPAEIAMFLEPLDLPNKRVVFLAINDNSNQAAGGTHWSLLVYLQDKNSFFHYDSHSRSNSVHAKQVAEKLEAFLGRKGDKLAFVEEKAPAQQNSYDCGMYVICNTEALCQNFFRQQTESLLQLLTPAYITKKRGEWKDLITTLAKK

[4] = target: T4, Caspase-3 (Homo sapiens, UniProt P42574); assay: SAR Analysis of small molecule inhibitors of Sentrin-specific proteases (SENPs) using a Caspase-3 Selectivity assay. [Related pubchem assays (depositor defined):AID2540, AID2599, AID434973, AID489001]
T4 sequence (P42574 whole entry): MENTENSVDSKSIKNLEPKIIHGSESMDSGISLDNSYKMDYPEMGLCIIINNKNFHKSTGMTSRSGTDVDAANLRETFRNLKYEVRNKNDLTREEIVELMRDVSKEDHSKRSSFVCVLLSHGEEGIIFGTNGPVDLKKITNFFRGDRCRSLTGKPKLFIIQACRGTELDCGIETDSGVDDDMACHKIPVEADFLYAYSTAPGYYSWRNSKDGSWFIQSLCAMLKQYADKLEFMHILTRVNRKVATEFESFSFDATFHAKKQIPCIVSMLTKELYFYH

IC50 [1]: > 99 µM (inactive)
IC50 [2]: > 99 µM (inactive)
IC50 [4]: > 99 µM (inactive)
SMILES: Clc1cccc(/N=C/c2ccc(OC3CSC3)cc2)c1
IC50 [3]: > 99 µM (inactive)
